Assays:
AT2 receptor = settings: cited from earlier work
wound tissue = settings: application to wound tissue; cited from earlier work
rabbit corneal eye = settings: in vivo; cited from earlier work
[1] = system: human peripheral blood mononuclear cells (PBMC); experiment: Respiratory burst (hydrogen peroxide generation), human PBMC; type: cell-based; settings: alone and in response to PMA 10 ng/ml; 4 hours exposure
Experimental: (§1) The respiratory burst of leukocytes (macrophages and polymorphonuclear neutrophils) is one component of the mediator system used to kill bacteria. As with phagocytosis, the level of this respiratory burst activity in resident macrophages is low. […] Studies were conducted to assess the effect of in vitro exposure of murine or rat peritoneal macrophages and human peripheral blood mononuclear cells (PBMC) to various concentrations of AII on the capacity to generate hydrogen peroxide via the respiratory burst system. For the human studies, five different donors were examined.
(§2) The murine or rat peritoneal cells were harvested by lavage with 5-15 ml of cold PBS with 0.5% bovine serum albumin. The human PBMC were harvested by venipuncture from normal human volunteers and isolated from peripheral blood by Ficoll Hypaque density centrifugation. After isolation, the cells were resuspended at 1×10^6 cells/ml and placed at 100 μl per well into 96 well plates. The cells were incubated with various concentrations of AII or AII analogues for 4 hours at 37° C. The cells were then preloaded with a fluorescent probe for hydrogen peroxide, 2,7 dichlorofluorescein acetate, which is nonfluorescent in the absence of hydrogen peroxide. Fifteen minutes later, 10 ng/ml of phorbol myristate acetate (+PMA) or PBS (−PMA) was added to stimulate the production of hydrogen peroxide. One hour after stimulation the level of fluorescence produced was measured on a Cytofluor 2350 multiwell fluorometer.

[2] = system: rat peritoneal macrophages; experiment: Respiratory burst (hydrogen peroxide generation), rat peritoneal macrophages; type: cell-based; settings: alone and in response to PMA 10 ng/ml; 4 hours exposure
Experimental: as §1
as §2, with “Fifteen minutes later, 10 ng/ml of phorbol myristate acetate (+PMA) or PBS (−PMA) was added to stimulate the production of hydrogen peroxide.” left out

[3] = system: cultured cells that are involved in wound repair; settings: cited from earlier work
murine HPC = experiment: Murine HPC colony formation in semi-solid culture with colony stimulating factors; type: cell-based, C57B1/6 mice; settings: for macroscopic colonies: day 14, enriched HPC from untreated (normal) mice
Experimental: HPC were harvested from C57B1/6 mice by immunomagnetic affinity chromatography and placed in semi-solid cultures with optimal growth medium. At various times after initiation of culture, the formation of colonies and the size of the colonies (number of cells/colony) was assessed microscopically.
Female C57B1/6 mice were purchased from Simonson and used as a source of bone marrow cells in this study. The bone marrow was harvested, either from untreated mice or from mice injected with 5-fluorouracil (5-FU) (3 mg/mouse; approximately 150 mg/kg) in the tail vein 48 hours before harvest, from the femur and tibia of mice by flushing with phosphate buffered saline (PBS), pH 7.4, containing 2% fetal bovine serum (FBS) with a 21-gauge needle. The eluant from the flushing was centrifuged and the pellet was resuspended at 4×10^7 nucleated cells/ml in PBS containing PBS containing 2% FBS and 5% normal rat serum.
The reagents for immunomagnetic labeling were purchased from Stem Cell Technologies, Inc. (Vancouver, BC). Biotin-labeled monoclonal antibodies to the following murine lineage-specific cell surface antigens were included in a cocktail for HPC enrichment and used according to the manufacturer's instructions: CD5 (Ly-1), CD45-R (B220), CD11b (Mac-1), Myeloid Differentiation Antigen (Gr-1) and Erythroid Cells (TER 119) Ten μl of antibody cocktail was added for each of the 2 sets of bone marrow (normal and 5-FU-treated), mixed and allowed to incubate at 4° C. for 15 minutes. The cells were then resuspended at 4×10^7 cells/ml in PBS containing 2% FBS. The antibody cocktail was then washed out and 100 μl anti-biotin tetramer was added for each ml of cells. The suspension was mixed and incubated at 4° C. for 15 minutes. Sixty μl of magnetic colloid was then added for each ml of cells, the combination was mixed and incubated at 4° C. for 15 minutes to yield the immunomagnetically-labeled bone marrow cells.
A column containing a stainless steel matrix was prepared by washing the matrix with PBS followed by washing with PBS containing 2% protein. […]

Asp-Arg-Val-Tyr-Ile-His-Pro-Phe [AII, known pressor agent, commercially available]
affinity for AT2 than AT1 (AT2 receptor): 100 times | rate of wound healing (wound tissue): significantly increases the rate of wound healing | angiogenic activity (rabbit corneal eye): angiogenic | ability to generate hydrogen peroxide (respiratory burst) [1]: increased the ability of leukocytes to generate hydrogen peroxide | ability to generate hydrogen peroxide (respiratory burst) [2]: increased the ability of leukocytes to generate hydrogen peroxide | mitogenesis and chemotaxis [3]: increases mitogenesis and chemotaxis | HPC colony size / HPC proliferation (murine HPC; 0 to 100 μg/ml, normal and 5-FU treated bone marrow): HPC colony size increases proportionately | macroscopic colonies (murine HPC; 10 μg/ml): 18 | macroscopic colonies (murine HPC; 100 μg/ml): 10

Source: patent US7744927B2, “Methods of promoting hematopoietic and mesenchymal cell proliferation and differentiation” (University of Southern California, priority 1997, dated 2010)
